These results are taken from patent publication US20230295200A1 (REGENTS OF THE UNIVERSITY OF MICHIGAN, priority 2022, published 2023).

The target in the experiment is T1, STAT6 protein (Homo sapiens, UniProt P42226).
T1 sequence (P42226 1-847): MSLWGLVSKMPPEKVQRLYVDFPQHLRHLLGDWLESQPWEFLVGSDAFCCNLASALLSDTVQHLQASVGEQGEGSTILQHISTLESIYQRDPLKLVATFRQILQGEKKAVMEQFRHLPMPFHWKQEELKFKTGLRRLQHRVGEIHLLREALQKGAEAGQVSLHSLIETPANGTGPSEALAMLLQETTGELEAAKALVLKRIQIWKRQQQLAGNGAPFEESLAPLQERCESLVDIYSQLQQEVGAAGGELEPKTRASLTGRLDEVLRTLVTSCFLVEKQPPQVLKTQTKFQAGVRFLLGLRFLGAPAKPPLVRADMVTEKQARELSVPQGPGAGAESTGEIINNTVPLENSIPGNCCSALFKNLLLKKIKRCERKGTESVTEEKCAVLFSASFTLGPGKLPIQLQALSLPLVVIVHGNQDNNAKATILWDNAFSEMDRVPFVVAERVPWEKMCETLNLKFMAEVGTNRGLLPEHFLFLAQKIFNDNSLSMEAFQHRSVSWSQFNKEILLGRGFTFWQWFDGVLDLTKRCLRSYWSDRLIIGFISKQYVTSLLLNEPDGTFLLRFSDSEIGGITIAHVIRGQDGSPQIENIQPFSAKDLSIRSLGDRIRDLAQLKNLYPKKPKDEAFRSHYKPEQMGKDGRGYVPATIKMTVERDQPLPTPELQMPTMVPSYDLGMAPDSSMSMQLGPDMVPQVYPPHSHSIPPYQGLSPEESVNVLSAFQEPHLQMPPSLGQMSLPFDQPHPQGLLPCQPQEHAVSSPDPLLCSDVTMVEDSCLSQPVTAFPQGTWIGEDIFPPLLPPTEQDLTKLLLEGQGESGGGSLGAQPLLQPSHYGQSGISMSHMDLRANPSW
In words: Fluorescence polarization (FP) binding assay, STAT6. The settings on record: FP competition, 5 nM fluorescein-labeled tracer, 200 nM protein, PBS pH7.4; read-out: Binding STAT6. The gist of the method: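 Tracer (fluorescein-labeled, 5 nM) was mixed with 200 nM STAT5 and/or STAT6 in PBS pH 7.4 plus 0.01% BGG, 0.01% Tween-20, 2 mM DTT. After 15 min shaking and 1 h at room temperature to equilibrium, polarization was measured and constants derived by nonlinear fitting.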
(Fluorescence polarisation rises when a labelled molecule tumbles more slowly, as on binding a larger partner.)
Regarding `CC(=O)N1CC[C@H]2CC[C@@H](C(=O)NCc3ccccc3)N2C(=O)[C@@H](NC(=O)c2cc3cc(C(F)(F)P(=O)(O)O)ccc3[nH]2)C1` [Compound 335, ((2-(((5S,8S,10aR)-3-acetyl-8-(benzylcarbamoyl)-6-oxodecahydropyrrolo[1,2-a][1,5]diazocin-5-yl)carbamoyl)-1H-indol-5-yl)difluoromethyl)phosphonic acid], the Ki is above 10 µM.

Regarding `CC(=O)N1CC[C@H]2CC[C@@H](C(=O)N(C)Cc3ccccc3)N2C(=O)[C@@H](NC(=O)c2cc3cc(C(F)(F)P(=O)(O)O)ccc3[nH]2)C1` [Compound 336, ((2-(((5S,8S,10aR)-3-acetyl-8-(benzyl(methyl)carbamoyl)-6-oxodecahydropyrrolo[1,2-a][1,5]diazocin-5-yl)carbamoyl)-1H-indol-5-yl)difluoromethyl)phosphonic acid], the Ki lay within 1 to 10 µM. The same measure for `CC(=O)N1CC[C@H]2CC[C@@H](C(=O)N[C@@H](C)c3ccccc3)N2C(=O)[C@@H](NC(=O)c2cc3cc(C(F)(F)P(=O)(O)O)ccc3[nH]2)C1` [Compound 337, ((2-(((5S,8S,10aR)-3-acetyl-6-oxo-8-(((S)-1-phenylethyl)carbamoyl)decahydropyrrolo[1,2-a][1,5]diazocin-5-yl)carbamoyl)-1H-indol-5-yl)difluoromethyl)phosphonic acid]: 1 to 10 µM; for `CC(=O)N1CC[C@H]2CC[C@@H](C(=O)N[C@H](C)c3ccccc3)N2C(=O)[C@@H](NC(=O)c2cc3cc(C(F)(F)P(=O)(O)O)ccc3[nH]2)C1` [Compound 338, ((2-(((5S,8S,10aR)-3-acetyl-6-oxo-8-(((R)-1-phenylethyl)carbamoyl)decahydropyrrolo[1,2-a][1,5]diazocin-5-yl)carbamoyl)-1H-indol-5-yl)difluoromethyl)phosphonic acid]: above 10 µM.

For the molecule `CC(=O)N1CC[C@H]2CC[C@@H](C(=O)NC(C)(C)c3ccccc3)N2C(=O)[C@@H](NC(=O)c2cc3cc(C(F)(F)P(=O)(O)O)ccc3[nH]2)C1` [Compound 339, ((2-(((5S,8S,10aR)-3-acetyl-6-oxo-8-((2-phenylpropan-2-yl)carbamoyl)decahydropyrrolo[1,2-a][1,5]diazocin-5-yl)carbamoyl)-1H-indol-5-yl)difluoromethyl)phosphonic acid], the Ki is above 10 µM. The same measure for `CC(=O)N1CC[C@H]2CC[C@@H](C(=O)NC3(c4ccccc4)CC3)N2C(=O)[C@@H](NC(=O)c2cc3cc(C(F)(F)P(=O)(O)O)ccc3[nH]2)C1` [Compound 340, ((2-(((5S,8S,10aR)-3-acetyl-6-oxo-8-((1-phenylcyclopropyl)carbamoyl)deca hydropyrrolo[1,2-a][1,5]diazocin-5-yl)carbamoyl)-1H-indol-5-yl)difluoromethyl)phosphonic acid]: above 10 µM; for `CC(=O)N1CC[C@H]2CC[C@@H](C(=O)NC3(c4ccccc4)CCOCC3)N2C(=O)[C@@H](NC(=O)c2cc3cc(C(F)(F)P(=O)(O)O)ccc3[nH]2)C1` [Compound 341, ((2-(((5S,8S,10aR)-3-acetyl-6-oxo-8-((4-phenyltetrahydro-2H-pyran-4-yl)carbamoyl)decahydropyrrolo[1,2-a][1,5]diazocin-5-yl)carbamoyl)-1H-indol-5-yl)difluoromethyl)phosphonic acid]: 1 to 10 µM. The same measure for `CC(=O)N1CC[C@H]2CC[C@@H](C(=O)N(Cc3ccccc3)C3CCCCC3)N2C(=O)[C@@H](NC(=O)c2cc3cc(C(F)(F)P(=O)(O)O)ccc3[nH]2)C1` [Compound 342, ((2-(((5S,8S,10aR)-3-acetyl-8-(benzyl(cyclohexyl)carbamoyl)-6-oxodecahydropyrrolo[1,2-a][1,5]diazocin-5-yl)carbamoyl)-1H-indol-5-yl)difluoromethyl)phosphonic acid]: 1 to 10 µM.
